Legend:
JAK1 = JAK1 (Homo sapiens (Human), UniProt P23458); experiment: Jak biochemical HTRF assay, JAK1; conditions: HTRF biochemical assay, recombinant GST-tagged catalytic domain; read-out: JAK1 IC50
JAK2 = JAK2 (Homo sapiens (Human), UniProt O60674); experiment: Jak biochemical HTRF assay, JAK2; conditions: HTRF biochemical assay, recombinant GST-tagged catalytic domain; read-out: JAK2 IC50
JAK2, sequence (O60674 849-1124): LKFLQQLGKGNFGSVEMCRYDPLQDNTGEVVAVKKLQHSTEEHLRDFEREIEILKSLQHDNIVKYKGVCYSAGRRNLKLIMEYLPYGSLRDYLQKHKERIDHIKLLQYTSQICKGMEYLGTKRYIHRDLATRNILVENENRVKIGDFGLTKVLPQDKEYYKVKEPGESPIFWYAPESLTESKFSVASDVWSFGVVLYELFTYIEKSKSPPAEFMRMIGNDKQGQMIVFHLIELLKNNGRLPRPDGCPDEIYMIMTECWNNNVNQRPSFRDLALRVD

JAK1, sequence (P23458 875-1153): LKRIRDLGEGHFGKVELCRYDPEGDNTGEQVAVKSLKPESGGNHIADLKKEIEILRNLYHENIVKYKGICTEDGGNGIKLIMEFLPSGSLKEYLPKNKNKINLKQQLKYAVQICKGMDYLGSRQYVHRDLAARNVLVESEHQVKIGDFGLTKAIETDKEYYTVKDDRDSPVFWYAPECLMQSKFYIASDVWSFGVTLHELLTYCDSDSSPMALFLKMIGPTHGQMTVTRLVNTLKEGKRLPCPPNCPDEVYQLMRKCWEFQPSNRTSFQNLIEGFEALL

Structure (SMILES) | IC50 (JAK1) [nM] | IC50 (JAK2) [nM]
N#C[C@H]1CCCC[C@@H]1n1nc(Nc2ccnc(F)c2)c2c(=O)[nH]ccc21 [Example 3-2, (1S,2S)-2-{3-[(2-fluoropyridin-4-yl)amino]-4-oxo-4,5-dihydro-1H-pyrazolo[4,3-c]pyridin-1-yl}cyclohexanecarbonitrile] | 0.4 | 5.4
N#C[C@H]1CCCC[C@@H]1n1nc(Nc2ccc([C@H]3C[C@H]4CC[C@@H](C3)N4)cc2)c2c(=O)[nH]ccc21 [Example 20-2] | 0.39 | 0.39
N#C[C@H]1CCCC[C@@H]1n1nc(Nc2ccc3c(c2)CC(C(=O)O)C3)c2c(=O)[nH]ccc21 (stereo partly drawn) [Example 13-1, 5-((1-((1S,2S)-2-Cyanocyclohexyl)-4-oxo-4,5-dihydro-1H-pyrazolo[4,3-c]pyridin-3-yl)amino)-2,3-dihydro-1H-indene-2-carboxylic acid] | 0.47 | 3.4
N#C[C@H]1CCCC[C@@H]1n1nc(Nc2ccc(C(=O)N3CCCC3)cc2)c2c(=O)[nH]ccc21 [Example 3-44, (1S,2S)-2-(4-oxo-3-{[4-(pyrrolidin-1-ylcarbonyl)phenyl]amino}-4,5-dihydro-1H-pyrazolo[4,3-c]pyridin-1-yl)cyclohexanecarbonitrile] | 1.4 | 4.8
N#C[C@H]1CCCC[C@@H]1n1nc(Nc2ccc(C3CCCN3)cc2)c2c(=O)[nH]ccc21 (single isomer, unassigned) [Example 3-72, (1S,2S)-2-[4-oxo-3-({4-[(2R or 2S)-pyrrolidin-2-yl]phenyl}amino)-4,5-dihydro-1H-pyrazolo[4,3-c]pyridin-1-yl]cyclohexanecarbonitrile] | 0.45 | 0.5
C[C@H](NC1CCC(n2nc(Nc3ccc(Cl)cc3)c3c(=O)[nH]ccc32)C(C#N)C1)C1CC1 (stereo in doubt) [Example 4-4, (1S,2S,5S)-2-(3-((4-Chlorophenyl)amino)-4-oxo-4,5-dihydro-1H-pyrazolo[4,3-c]pyridin-1-yl)-5-(((S)-1-cyclopropylethyl)amino)cyclohexanecarbonitrile] | 7.8 | 525
CC(C)(C)OC(=O)CN1Cc2ccc(Nc3nn([C@H]4CCCC[C@@H]4C#N)c4cc[nH]c(=O)c34)cc2C1 [Example 3-164, tert-butyl [5-({1-[(1S,2S)-2-cyanocyclohexyl]-4-oxo-4,5-dihydro-1H-pyrazolo[4,3-c]pyridin-3-yl}amino)-1,3-dihydro-2H-isoindol-2-yl]acetate] | 0.33 | 2.5
CN1Cc2cc(Nc3nn([C@H]4CCCC[C@@H]4C#N)c4cc[nH]c(=O)c34)ccc2S1(=O)=O [Example 3-49, (1S,2S)-2-{3-[(2-methyl-1,1-dioxido-2,3-dihydro-1,2-benzisothiazol-5-yl)amino]-4-oxo-4,5-dihydro-1H-pyrazolo[4,3-c]pyridin-1-yl}cyclohexanecarbonitrile] | 0.026 | 0.29
N#C[C@H]1CCCC[C@@H]1n1nc(Nc2ccc3c(c2)CN([C@H]2CC[C@@H](C(=O)O)CC2)S3(=O)=O)c2c(=O)[nH]ccc21 [Example 16-2, (1S,4S)-4-(5-((1-((1S,2S)-2-cyanocyclohexyl)-4-oxo-4,5-dihydro-1H-pyrazolo[4,3-c]pyridin-3-yl)amino)-1,1-dioxidobenzo[d]isothiazol-2(3H)-yl)cyclohexanecarboxylic acid] | 0.069 | 0.47
CCOC(=O)c1cnn(-c2ccc(Nc3nn([C@H]4CCCC[C@@H]4C#N)c4cc[nH]c(=O)c34)cc2C)c1 [Example 15-15, ethyl 1-[4-({1-[(1S,2S)-2-cyanocyclohexyl]-4-oxo-4,5-dihydro-1H-pyrazolo[4,3-c]pyridin-3-yl}amino)-2-methylphenyl]-1H-pyrazole-4-carboxylate] | 1.7 | 5.9
CC(C)(C)N1Cc2cc(Nc3nn([C@H]4CCCC[C@@H]4C#N)c4cc[nH]c(=O)c34)ccc2C1=O [Example 15-20, (1S,2S)-2-{3-[(2-tert-butyl-1-oxo-2,3-dihydro-1H-isoindol-5-yl)amino]-4-oxo-4,5-dihydro-1H-pyrazolo[4,3-c]pyridin-1-yl}cyclohexanecarbonitrile] | 0.069 | 0.48
N#C[C@H]1CCC[C@@H]1n1nc(Nc2ccc(C(N)C(F)(F)F)cc2)c2c(=O)[nH]ccc21 (single isomer, unassigned) [Example 3-104, (1S,2S)-2-[3-({4-[(1S or 1R)-1-amino-2,2,2-trifluoroethyl]phenyl}amino)-4-oxo-4,5-dihydro-1H-pyrazolo[4,3-c]pyridin-1-yl]cyclopentanecarbonitrile] | 0.22 | 0.59
N#C[C@H]1CCCC[C@@H]1n1nc(Nc2ccc(CNC(=O)c3ncccn3)cc2)c2c(=O)[nH]ccc21 [Example 3-30, N-[4-({1-[(1S,2S)-2-cyanocyclohexyl]-4-oxo-4,5-dihydro-1H-pyrazolo[4,3-c]pyridin-3-yl}amino)benzyl]pyrimidine-2-carboxamide] | 0.29 | 2
CC(C)(O)c1cn(Cc2cccc(Nc3nn([C@H]4CCCC[C@@H]4C#N)c4cc[nH]c(=O)c34)c2)nn1 [Example 3-84, (1S,2S)-2-{3-[(3-{[4-(1-hydroxy-1-methylethyl)-1H-1,2,3-triazol-1-yl]methyl}phenyl)amino]-4-oxo-4,5-dihydro-1H-pyrazolo[4,3-c]pyridin-1-yl}cyclohexanecarbonitrile] | 0.52 | 2.6
CC(C)CN1Cc2cc(Nc3nn([C@H]4CCCC[C@@H]4C#N)c4cc[nH]c(=O)c34)ccc2S1(=O)=O [Example 3-62, (1S,2S)-2-(3-{[2-(2-methylpropyl)-1,1-dioxido-2,3-dihydro-1,2-benzisothiazol-5-yl]amino}-4-oxo-4,5-dihydro-1H-pyrazolo[4,3-c]pyridin-1-yl)cyclohexanecarbonitrile] | 0.083 | 0.41
CCNC(c1ccc(Nc2nn([C@H]3CCC[C@@H]3C#N)c3cc[nH]c(=O)c23)cc1)C(F)(F)F (single isomer, unassigned) [Example 3-113, (1S,2S)-2-[3-({4-[(1R or 1S)-1-(ethylamino)-2,2,2-trifluoroethyl]phenyl}amino)-4-oxo-4,5-dihydro-1H-pyrazolo[4,3-c]pyridin-1-yl]cyclopentanecarbonitrile] | 0.15 | 0.31
CC(C)(C)OC(=O)C(C)(C)N1Cc2cc(Nc3nn([C@H]4CCCC[C@@H]4C#N)c4cc[nH]c(=O)c34)ccc2S1(=O)=O [Example 3-152, tert-butyl 2-[5-({1-[(1S,2S)-2-cyanocyclohexyl]-4-oxo-4,5-dihydro-1H-pyrazolo[4,3-c]pyridin-3-yl}amino)-1,1-dioxido-1,2-benzisothiazol-2(3H)-yl]-2-methylpropanoate] | 0.1 | 0.77
Cc1nc2ccc(Nc3nn([C@H]4CCCC[C@@H]4C#N)c4cc[nH]c(=O)c34)cc2s1 [Example 15-10, (1S,2S)-2-{3-[(2-methyl-1,3-benzothiazol-6-yl)amino]-4-oxo-4,5-dihydro-1H-pyrazolo[4,3-c]pyridin-1-yl}cyclohexanecarbonitrile] | 0.092 | 1.6
CN(C)[C@H]1CC[C@H](n2nc(Nc3ccc(Cl)c(F)c3)c3c(=O)[nH]ccc32)[C@@H](C#N)C1 [Example 5-2, (1S,2S,5S)-2-(3-((4-Chloro-3-fluorophenyl)amino)-4-oxo-4,5-dihydro-1H-pyrazolo[4,3-c]pyridin-1-yl)-5-(dimethylamino)cyclohexanecarbonitrile] | 0.6 | 14
